This note sets out measurements from ChEMBL document CHEMBL4706735, “Novel Pyrazolo[3,4-b]pyrazines as SHP2 Inhibitors for Treating Cancer” (ACS Med Chem Lett, 2021).

The experiment in a line: Inhibition of ERK phosphorylation in human HCC827 cells incubated for 30 mins in serum free medium measured by sandwich ELISA. In kind it is cell-based. Particulars: HCC827, 0.5 h. Background: In an ELISA, binding on a coated surface is turned into a signal by an enzyme label.
The IC50 is the point on the concentration scale where inhibition reaches its midpoint. Compound `Cn1cc2c(Cl)c(-c3n[nH]c4nc(N5CCC6(CC5)CC(F)(F)C[C@H]6N)c(CO)nc34)ccc2n1` had an IC50 of 6.3 nM. That is a single-digit nanomolar value. `C[C@@H]1OCC2(CCN(c3nc4[nH]nc(-c5cccc(Cl)c5F)c4nc3CO)CC2)[C@@H]1N` yielded an IC50 of 5.6 nM. In turn, `Cn1nc2ccc(-c3n[nH]c4nc(N5CCC6(CC5)C[C@H](F)C[C@H]6N)c(CO)nc34)c(Cl)c2c1Cl` had an IC50 of 4.1 nM. Regarding `Cn1nc2ccc(-c3n[nH]c4nc(N5CCC6(CC5)CC(F)(F)C[C@H]6N)c(CO)nc34)c(Cl)c2c1Cl`, the IC50 amounted to 6.2 nM.

In the case of `C[C@@H]1OCC2(CCN(c3nc4[nH]nc(-c5ccc6nn(C)c(Cl)c6c5Cl)c4nc3CO)CC2)[C@@H]1N`, the IC50 stood at 3.6 nM.

The compound `COc1cnc2ccc(-c3n[nH]c4nc(N5CCC6(CC5)CO[C@@H](C)[C@H]6N)c(CO)nc34)c(Cl)c2n1` showed an IC50 of 8.4 nM.
